Reference: patent US6642238B2, “Oxazolidinone thioamides with piperazine amide substituents” (Pharmacia and Upjohn Company, priority 2000, dated 2003)
Converted amounts (≈) assume the structure as drawn.

Assays:
[1] = tested on: H. influenzae (HINF 30063); test: MIC by agar dilution, HINF 30063; type: cell-based; conditions: Minimum Inhibitory Concentration, strain HINF 30063; for MIC: Haemophilus influenzae
Source text: (§1) The oxazolidinone antibacterial agents of this invention have useful activity against a variety of organisms. The in vitro activity of compounds of this invention can be assessed by standard testing procedures such as the determination of minimum inhibitory concentration (MIC) by agar dilution as described in “Approved Standard. Methods for Dilution Antimicrobial Susceptibility Tests for Bacteria That Grow Aerobically”, 3rd. ed., published 1993 by the National Committee for Clinical Laboratory Standards, Villanova, Pa., USA. The activity of compounds of this invention against Staphylococcus aureus, Staphylococcus epidermidis, Streptococcus pneumoniae, Streptococcus pyogens, Enterococcus faecalis, Moraxella catarrhalis and H. influenzae is shown in Table 1.

[2] = tested on: Staphylococcus epidermidis (SEPI 30593); test: MIC by agar dilution, SEPI 30593; type: cell-based; conditions: Minimum Inhibitory Concentration, strain SEPI 30593; for MIC: Staphylococcus epidermidis
Source text: as §1

[3] = tested on: Streptococcus pyogens (SPYO 152); test: MIC by agar dilution, SPYO 152; type: cell-based; conditions: Minimum Inhibitory Concentration, strain SPYO 152; for MIC: Streptococcus
Source text: as §1

[4] = tested on: Enterococcus faecalis (EFAE 12712); test: MIC by agar dilution, EFAE 12712; type: cell-based; conditions: Minimum Inhibitory Concentration, strain EFAE 12712; for MIC: Enterococcus faecalis
Source text: as §1

[5] = tested on: Enterococcus faecalis (EFAE 9217); test: MIC by agar dilution, EFAE 9217; type: cell-based; conditions: Minimum Inhibitory Concentration, strain EFAE 9217; for MIC: Enterococcus faecalis
Source text: as §1

[6] = tested on: Streptococcus pneumoniae (SPNE 9912); test: MIC by agar dilution, SPNE 9912; type: cell-based; conditions: Minimum Inhibitory Concentration, strain SPNE 9912; for MIC: Streptococcus pneumoniae
Source text: as §1

[7] = tested on: Moraxella catarrhalis (MCAT 30607); test: MIC by agar dilution, MCAT 30607; type: cell-based; conditions: Minimum Inhibitory Concentration, strain MCAT 30607; for MIC: Moraxella catarrhalis
Source text: as §1

[8] = tested on: Staphylococcus aureus (SAUR 9213); test: MIC by agar dilution, SAUR 9213; type: cell-based; conditions: Minimum Inhibitory Concentration, strain SAUR 9213; for MIC: Staphylococcus aureus
Source text: as §1

| Molecule | MIC [1] | MIC [2] | MIC [3] | MIC [4] | MIC [5] | MIC [6] | MIC [7] | MIC [8] | melting point | HINF 30063 MIC [1] | SEPI 30593 MIC [2] | SPYO 152 MIC [3] | EFAE 12712 MIC [4] | EFAE 9217 MIC [5] | SPNE 9912 MIC [6] | MCAT 30607 MIC [7] | SAUR 9213 MIC [8] |
| --- | --- | --- | --- | --- | --- | --- | --- | --- | --- | --- | --- | --- | --- | --- | --- | --- | --- |
| CCC(=S)NC[C@H]1CN(c2ccc(N3CCN(C(=O)CSC)CC3)c(F)c2)C(=O)O1 [EX 2, N-{[(5S)-3-(3-fluoro-4-{4-[2-(methylsulfanyl)acetyl]-1-piperazinyl}phenyl)-2-oxo-1,3-oxazolidin-5-yl]methyl}propanethioamide] | > 64 µg/mL | 1 µg/mL (≈ 2.2 µM) | 1 µg/mL (≈ 2.2 µM) | 1 µg/mL (≈ 2.2 µM) | 1 µg/mL (≈ 2.2 µM) | < 0.5 µg/mL | 4 µg/mL (≈ 8.8 µM) | 2 µg/mL (≈ 4.4 µM) | – | – | – | – | – | – | – | – | – |
| CCC(=S)NC[C@H]1CN(c2ccc(N3CCN(C(=O)CS(C)(=O)=O)CC3)c(F)c2)C(=O)O1 [EX 3, N-{ [(5S)-3-(3-fluoro-4-{4-[2-(methylsulfonyl)acetyl]-1-5 piperazinyl}phenyl]-2-oxo-1,3-oxazolidin-5-yl]methyl}propanethioamide] | 8 µg/mL (≈ 16.4 µM) | 0.5 µg/mL (≈ 1.03 µM) | 0.5 µg/mL (≈ 1.03 µM) | 1 µg/mL (≈ 2.06 µM) | 0.5 µg/mL (≈ 1.03 µM) | 0.25 µg/mL (≈ 0.514 µM) | 2 µg/mL (≈ 4.11 µM) | 2 µg/mL (≈ 4.11 µM) | – | – | – | – | – | – | – | – | – |
| CCC(=S)NC[C@H]1CN(c2ccc(N3CCN(C(C)=S)CC3)c(F)c2)C(=O)O1 [EX 4, N-({(5S)-3-[4-(4-ethanethiolyl-1-piperazinyl)-3-fluorophenyl]2-oxo-1,3-oxazolidin-5-yl}methyl)propanethioamide] | 1 µg/mL (≈ 2.36 µM) | 0.25 µg/mL (≈ 0.589 µM) | 0.125 µg/mL (≈ 0.294 µM) | 0.5 µg/mL (≈ 1.18 µM) | 0.5 µg/mL (≈ 1.18 µM) | 0.125 µg/mL (≈ 0.294 µM) | 1 µg/mL (≈ 2.36 µM) | 0.5 µg/mL (≈ 1.18 µM) | 209 to 210 °C | – | – | – | – | – | – | – | – |
| CCC(=S)NC[C@H]1CN(c2ccc(N3CCN(C#N)CC3)c(F)c2)C(=O)O1 [EX 5, N-({(5S)-3-[4-(4-cyano-1-piperazinyl)-3-fluorophenyl]-2-oxo-1,3-oxazolidin-5-yl}methyl)propanethioamide] | 2 µg/mL (≈ 5.11 µM) | 0.25 µg/mL (≈ 0.639 µM) | 0.125 µg/mL (≈ 0.319 µM) | 0.25 µg/mL (≈ 0.639 µM) | 0.25 µg/mL (≈ 0.639 µM) | 0.125 µg/mL (≈ 0.319 µM) | 1 µg/mL (≈ 2.55 µM) | 0.25 µg/mL (≈ 0.639 µM) | 182 to 184 °C | – | – | – | – | – | – | – | – |
| CCC(=S)NC[C@H]1CN(c2ccc(N3CCN(C(=O)COC(=O)OCCOC)CC3)c(F)c2)C(=O)O1 [EX 7, N-({(5S)-3-(3-fuoro-4-{4-[2-[(2-methoxyethoxy)carbonyloxy]acetyl]-1-piperazinyl}phenyl)-2-oxo-1,3-oxazolidin-5-yl}methyl) propanethioamide] | 4 µg/mL (≈ 7.6 µM) | 1 µg/mL (≈ 1.9 µM) | 0.25 µg/mL (≈ 0.475 µM) | 2 µg/mL (≈ 3.8 µM) | 2 µg/mL (≈ 3.8 µM) | 0.25 µg/mL (≈ 0.475 µM) | 4 µg/mL (≈ 7.6 µM) | 2 µg/mL (≈ 3.8 µM) | 150 to 151 °C | – | – | – | – | – | – | – | – |
| CCC(=S)NC[C@H]1CN(c2ccc(N3CCN(C(=O)[C@@H](O)COC)CC3)c(F)c2)C(=O)O1 [EX 8, N-[((5S)-3-{3-fluoro-4-[4-((2S)-2-hydroxy-3-methoxypropanoyl)-1-piperazinyl]phenyl}-2-oxo-1,3-oxazolidin-5-yl)methyl]propanethioamide] | 16 µg/mL (≈ 34.1 µM) | 1 µg/mL (≈ 2.13 µM) | 0.5 µg/mL (≈ 1.07 µM) | 2 µg/mL (≈ 4.27 µM) | 1 µg/mL (≈ 2.13 µM) | 0.5 µg/mL (≈ 1.07 µM) | 2 µg/mL (≈ 4.27 µM) | 2 µg/mL (≈ 4.27 µM) | 190 to 191 °C (dec.) | – | – | – | – | – | – | – | – |
| CCC(=S)NC[C@H]1CN(c2ccc(N3CCN(C(=O)[C@H](COC)OC)CC3)c(F)c2)C(=O)O1 [EX 9, N-[((5S)-3-{3-fluoro-4-[4-((2S)-2,3-dimethyoxypropanoyl)-1-piperazinyl]phenyl}-2-oxo-1,3-oxazolidin-5-yl)methyl]propanethioamide] | – | – | – | – | – | – | – | – | – | 32 µg/mL | 2 µg/mL | 1 µg/mL | 4 µg/mL | 2 µg/mL | 1 µg/mL | 4 µg/mL | 4 µg/mL |
| CCC(=S)NC[C@H]1CN(c2ccc(N3CCN(C(=O)C(CO)OC)CC3)c(F)c2)C(=O)O1 (stereo partly drawn) [EX 10, N-[((5S)-3-{3-fluoro-4-[4-((2S)-3-hydroxy-2-methyoxypropanoyl)-1-piperazinyl]phenyl}-2-oxo-1,3-oxazolidin-5-yl)methyl]propanethioamide] | 16 µg/mL (≈ 34.1 µM) | 2 µg/mL (≈ 4.27 µM) | 1 µg/mL (≈ 2.13 µM) | 2 µg/mL (≈ 4.27 µM) | 1 µg/mL (≈ 2.13 µM) | 1 µg/mL (≈ 2.13 µM) | 4 µg/mL (≈ 8.54 µM) | 4 µg/mL (≈ 8.54 µM) | – | – | – | – | – | – | – | – | – |
| CCC(=S)NC[C@H]1CN(c2ccc(N3CCN(C(=O)C(C)=O)CC3)c(F)c2)C(=O)O1 [EX 12, N-({(5S)-3-[3-fluoro-4-(4-pyruvoyl-1-piperazinyl)phenyl]-2-oxo-1,3-oxazolidin-5-yl}methyl)propanethioamide] | 8 µg/mL (≈ 18.3 µM) | 1 µg/mL (≈ 2.29 µM) | 0.5 µg/mL (≈ 1.15 µM) | 1 µg/mL (≈ 2.29 µM) | 1 µg/mL (≈ 2.29 µM) | 0.5 µg/mL (≈ 1.15 µM) | 2 µg/mL (≈ 4.58 µM) | 2 µg/mL (≈ 4.58 µM) | 173 to 175 °C (dec.) | – | – | – | – | – | – | – | – |
| CCC(=S)NC[C@H]1CN(c2ccc(N3CCN(C(=O)CCO)CC3)c(F)c2)C(=O)O1 [EX 13] | 8 µg/mL (≈ 18.2 µM) | 1 µg/mL (≈ 2.28 µM) | 0.5 µg/mL (≈ 1.14 µM) | 1 µg/mL (≈ 2.28 µM) | 1 µg/mL (≈ 2.28 µM) | 0.5 µg/mL (≈ 1.14 µM) | 2 µg/mL (≈ 4.56 µM) | 2 µg/mL (≈ 4.56 µM) | – | – | – | – | – | – | – | – | – |
| CCC(=S)NC[C@H]1CN(c2ccc(N3CCN(C(=O)C4(O)CC4)CC3)c(F)c2)C(=O)O1 [EX 14, N-{[(5S)-3-(3-fluoro-4-{4-[(1-hydroxycyclopropyl)carbonyl]-1-piperazinyl}phenyl)-2-oxo-1,3-oxazolidin-5-yl]methyl}propanethioamide] | 32 µg/mL (≈ 71 µM) | 1 µg/mL (≈ 2.22 µM) | 1 µg/mL (≈ 2.22 µM) | 2 µg/mL (≈ 4.44 µM) | 1 µg/mL (≈ 2.22 µM) | 0.5 µg/mL (≈ 1.11 µM) | 2 µg/mL (≈ 4.44 µM) | 4 µg/mL (≈ 8.88 µM) | 185 to 186 °C (dec.) | – | – | – | – | – | – | – | – |
| CCC(=S)NC[C@H]1CN(c2ccc(N3CCN(C(=O)COc4ccccc4)CC3)c(F)c2)C(=O)O1 [EX 15, N-[((5S)-3-{3-fluoro-4-[4-(2-phenoxyacetyl)-1-piperazinyl]phenyl}-2-oxo-1,3-oxazolidin-5-yl)methyl]propanethioamide] | 32 µg/mL (≈ 63.9 µM) | 0.5 µg/mL (≈ 0.999 µM) | 0.5 µg/mL (≈ 0.999 µM) | 1 µg/mL (≈ 2 µM) | 0.5 µg/mL (≈ 0.999 µM) | 0.25 µg/mL (≈ 0.499 µM) | 2 µg/mL (≈ 4 µM) | 2 µg/mL (≈ 4 µM) | 171 to 172 °C | – | – | – | – | – | – | – | – |
| CCC(=S)NC[C@H]1CN(c2ccc(N3CCN(C(=O)C(C)(CO)CO)CC3)c(F)c2)C(=O)O1 [EX 18, N-{[(5S)-3-(3-fluoro-4-{4-[3-hydroxy-2-(hydroxymethyl)-2-mnethylpropanoyl]-1-piperazinyl}phenyl)-2-oxo-1,3-oxazolidin-5-yl]methyl}propanethioamide] | – | – | – | – | – | – | – | – | – | 32 µg/mL | 1 µg/mL | 1 µg/mL | 2 µg/mL | 2 µg/mL | 0.5 µg/mL | 4 µg/mL | 4 µg/mL |
| CCC(=S)NC[C@H]1CN(c2ccc(N3CCN(C(=O)[C@H](O)c4ccccc4)CC3)c(F)c2)C(=O)O1 [EX 21, N-[((5S)-3-{3-fluoro-4-[4-((2R)-2-hydroxy-2-phenylacetyl)-1-piperazinyl]phenyl}-2-oxo-1,3-oxazolidin-5-yl)methyl]propanethioamide] | 64 µg/mL (≈ 128 µM) | 1 µg/mL (≈ 2 µM) | 2 µg/mL (≈ 4 µM) | 2 µg/mL (≈ 4 µM) | 2 µg/mL (≈ 4 µM) | 1 µg/mL (≈ 2 µM) | 4 µg/mL (≈ 7.99 µM) | 4 µg/mL (≈ 7.99 µM) | – | – | – | – | – | – | – | – | – |
| CCC(=S)NC[C@H]1CN(c2ccc(N3CCN(C(=O)[C@@H](OC(C)=O)c4ccccc4)CC3)c(F)c2)C(=O)O1 [EX 22, N-[((5S)-3-{3-fluoro-4-[4-((2S)-2-acetoxy-2-phenylacetyl)-1-piperazinyl]phenyl}-2-oxo-1,3-oxazolidin-5-yl)methyl]propanethioamide] | > 64 µg/mL | 4 µg/mL (≈ 7.37 µM) | 4 µg/mL (≈ 7.37 µM) | 4 µg/mL (≈ 7.37 µM) | 4 µg/mL (≈ 7.37 µM) | 2 µg/mL (≈ 3.69 µM) | 8 µg/mL (≈ 14.7 µM) | 8 µg/mL (≈ 14.7 µM) | – | – | – | – | – | – | – | – | – |
| N{[(5S)-3-(3-fluoro-4-{4-[2-(methylsulfinyl)acetyl]-1-piperazinyl}phenyl)-2-oxo-1,3-oxazolidin-5-yl]methyl }propanethioamide [EX 1] | – | – | – | – | – | – | – | – | – | 8 µg/mL | 1 µg/mL | 2 µg/mL | 2 µg/mL | 1 µg/mL | .05 µg/mL | 8 µg/mL | 4 µg/mL |
